# In patent US6858638B2, “Substituted indazoles, compositions containing them, method of production and use” (Aventis Pharma S.A., priority 2002, dated 2005):
# Columns and labels:
# Format in all cases: biochemical
# [1] = biological target: T1, Aurora2 kinase (Homo sapiens, UniProt O14965); test: Aurora2 kinase radioactivity scintillation assay using nickel chelate (NuMA substrate); conditions: 10 μM; read-out: Aurora2 % inhib at 10 μM
# T1 construct: A complete recombinant Aurora2 enzyme; His tag (N); made in house; host or cells: E. coli
# T1 sequence (O14965 1-403): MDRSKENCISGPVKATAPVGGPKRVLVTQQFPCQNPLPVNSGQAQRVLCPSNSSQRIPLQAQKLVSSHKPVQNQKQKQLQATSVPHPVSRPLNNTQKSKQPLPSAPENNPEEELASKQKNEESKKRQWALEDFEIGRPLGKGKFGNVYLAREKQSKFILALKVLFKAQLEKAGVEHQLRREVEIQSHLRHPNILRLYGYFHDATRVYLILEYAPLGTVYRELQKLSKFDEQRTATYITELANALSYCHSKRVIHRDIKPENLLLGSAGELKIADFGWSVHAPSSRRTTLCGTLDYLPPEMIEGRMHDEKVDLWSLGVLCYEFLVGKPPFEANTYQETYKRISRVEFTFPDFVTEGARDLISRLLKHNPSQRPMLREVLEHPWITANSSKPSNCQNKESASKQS
# Procedure: The inhibitory effect of compounds with respect to the Aurora2 kinase is determined with a radioactivity scintillation assay using nickel chelate.
# A complete recombinant Aurora2 enzyme, the N-terminal end of which was labeled with histidine, was expressed in E. coli and purified to a quality close to homogeneity.
# The C-terminal fragment (Q1687-H2101) of a NuMA (Nuclear protein that associates with the Mitotic Apparatus) expressed in E. coli, and the N-terminal end of which was labeled with histidine, was purified by nickel chelate chromatography and used as substrate in the Aurora2 kinase assay. In order to determine the kinase activity, the NuMA substrate is equilibrated by chromatography on a Pharmacia PD10 column, in a buffer (50 mM Tris HCl, pH7.5, 50 mM NaCl, 10 mM MgCl2) to which 10% (v/v) of glycerol and 0.05% (w/v) of NP40 have been added.
# The kinase acivitity of Aurora2 is measured by scintillation with nickel chelate (New England Nuclear, model SMP107). Each well contains 100 μl of the following solution: 0.02 μM of Aurora2; 0.5 μM of NuMA substrate; 1 μM of ATP to which 0.5 μCi of ATP-[^33P] has been added. The solutions are incubated for 30 minutes at 37° C. The assay buffer is then removed and the wells are rinsed twice with 300 μl of kinase buffer. The radioactivity is measured in each well using a Packard Model Top Count NXT device.
# The background noise is deduced from the measurement of radioactivity by measuring, in duplicate, in wells containing the radioactive ATP alone containing buffered kinase treated in the same way as the other samples.
# The activity of the control is determined by measuring, in duplicate, the radioactivity in the complete assay mixture (ATP, Aurora2 and the NuMA substrate) in the absence of test compound.
# The inhibition of the Aurora2 with a compound of the invention is expressed as percentage inhibition of the control activity in the absence of test compound. Staurosporine is added to each plate as an inhibition control.
# [2] = biological target: T2, human FAK (Homo sapiens, UniProt Q05397); test: FAK autophosphorylation inhibition, time resolved fluorescence (HTRF) assay; conditions: for inhibition at 10 µM: 10 μM (values without asterisk), read-out: FAK % inhib at 10 μM; for inhibition at 30 µM: 30 μM (values marked *), read-out: FAK % inhib at 30* μM
# T2 construct: The complete cDNA of human FAK; made in house; host or cells: baculovirus expression system (vector pFastBac HTc)
# Procedure: The inhibitory activity of the compounds on FAK is determined by measuring the inhibition of the autophosphorylation of the enzyme using a time resolved fluorescence (HTRF) assay.
# The complete cDNA of human FAK, the N-terminal end of which was labeled with histidine, was cloned into a baculovirus expression vector pFastBac HTc. The protein was expressed and purified to approximately 70% homogeneity.
# The kinase activity is determined by incubating the enzyme (6.6 μg/ml) with various concentrations of test compound in a 50 mM Hepes buffer, pH=7.2, containing 10 mM MgCl2, 100 μM Na3VO4 and 15 μM d'ATP for 1 hour at 37° C. The enzyme reaction is stopped by adding Hepes buffer, pH=7.0, containing […], 133 mM EDTA and 0.1% BSA, and the labeling is carried out, over 1 to 2 hours at ambient temperature, by adding to this buffer an anti-Histidine antibody labeled with XL665 and a monoclonal antibody phosphospecific for tyrosine, conjugated to europium cryptate (Eu-K). The characteristics of the two fluorophores are available in G. Mathis et al., Anticancer Research, 1997, 17, pages 3011-3014. The transfer of energy from the excited europium cryptate to the XL665 acceptor is proportional to the degree of autophosphorylation of FAK. The long-lived signal specific for XL-665 is measured in a Packard Discovery plate counter. All the assays are carried out in duplicate and the mean of the two assays is calculated. The inhibition of the FAK autophosphorylation activity with compounds of the invention is expressed as percentage inhibition compared to a control whose activity is measured in the absence of test compound. The [signal at 665 nm/signal at 620 nm] ratio is used for the calculation of the % inhibition.
# [3] = biological target: T3, human KDR enzyme (Homo sapiens, UniProt P35968); test: KDR substrate (PLCγ) phosphorylation, scintillation assay; conditions: 10 μM; read-out: KDR % inhib at 10 μM
# T3 construct: The cytoplasmic domain of the human KDR enzyme; GST; made in house; host or cells: SF21 insect cells (baculovirus)
# Procedure: The inhibitory effect of the compounds is determined in an assay of substrate phosphorylation by the KDR enzyme in vitro using a scintillation technique (96-well plate, NEN).
# The cytoplasmic domain of the human KDR enzyme was cloned in the form of a GST fusion into the baculovirus expression vector pFastBac. The protein was expressed in SF21 cells and purified to approximately 60% homogeneity.
# The KDR kinase activity is measured in 20 mM MOPS, 10 mM MgCl2, 10 mM MnCl2, 1 mM DTT, 2.5 mM EGTA, 10 mM β-glycerophosphate, pH=7.2, in the presence of 10 mM MgCl2, 100 μM Na3VO4, 1 mM NaF. 10 μl of the compound are added to 70 μl of kinase buffer containing 100 ng of KDR enzyme at 4° C. The reaction is triggered by adding 20 μl of solution containing 2 μg of substrate (SH2-SH3 fragment of PLCγ expressed in the form of a GST fusion protein), 2 μCi γ^33P[ATP] and 2 μM cold ATP. After incubation for 1 hour at 37° C., the reaction is stopped by adding 1 volume (100 μl) of 200 mM EDTA. The incubation buffer is removed and the wells are washed three times with 300 μl of PBS. The radioactivity is measured in each well using Top Count NXT radioactivity counter (Packard).
# The background noise is determined by measuring the radioactivity in four different wells containing the radioactive ATP and the substrate alone.
# A control for total activity is measured in four different wells containing all the reagents (γ^33P-[ATP], KDR and PLCγ substrate) but in the absence of compound.
# The inhibition of the KDR activity with the compound of the invention is expressed as percentage inhibition of the control activity determined in the absence of compound.
# The compound SU5614 (Calbiochem) (1 μM) is included in each plate as an inhibition control.
# T2 sequence (Q05397 whole entry): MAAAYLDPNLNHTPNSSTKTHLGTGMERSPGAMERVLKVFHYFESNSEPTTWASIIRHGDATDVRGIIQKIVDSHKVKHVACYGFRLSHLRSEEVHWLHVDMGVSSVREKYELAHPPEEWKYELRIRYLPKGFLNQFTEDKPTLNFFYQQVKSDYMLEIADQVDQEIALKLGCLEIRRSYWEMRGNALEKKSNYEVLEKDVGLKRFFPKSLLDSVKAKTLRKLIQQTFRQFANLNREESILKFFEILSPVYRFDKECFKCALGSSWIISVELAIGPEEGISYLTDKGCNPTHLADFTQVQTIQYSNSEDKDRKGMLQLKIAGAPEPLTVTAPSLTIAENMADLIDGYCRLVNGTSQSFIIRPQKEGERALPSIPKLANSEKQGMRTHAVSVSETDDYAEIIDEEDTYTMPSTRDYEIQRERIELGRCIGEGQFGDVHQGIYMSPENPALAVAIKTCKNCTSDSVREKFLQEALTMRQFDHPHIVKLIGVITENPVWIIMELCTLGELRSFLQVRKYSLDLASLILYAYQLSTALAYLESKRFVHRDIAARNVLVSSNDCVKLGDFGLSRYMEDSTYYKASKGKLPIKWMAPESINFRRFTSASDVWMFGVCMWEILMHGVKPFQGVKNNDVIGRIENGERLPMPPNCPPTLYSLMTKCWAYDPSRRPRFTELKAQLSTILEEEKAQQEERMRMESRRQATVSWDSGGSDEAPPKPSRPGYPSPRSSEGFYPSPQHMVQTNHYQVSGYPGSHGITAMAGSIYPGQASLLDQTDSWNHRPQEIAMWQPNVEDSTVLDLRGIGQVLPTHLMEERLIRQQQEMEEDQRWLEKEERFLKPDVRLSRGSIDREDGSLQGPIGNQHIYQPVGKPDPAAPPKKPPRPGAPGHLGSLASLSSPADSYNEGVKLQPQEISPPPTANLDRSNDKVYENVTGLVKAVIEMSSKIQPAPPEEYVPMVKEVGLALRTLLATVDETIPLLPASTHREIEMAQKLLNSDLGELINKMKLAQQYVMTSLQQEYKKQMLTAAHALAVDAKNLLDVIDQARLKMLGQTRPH
# T3 sequence (P35968 786-1356 limits assumed): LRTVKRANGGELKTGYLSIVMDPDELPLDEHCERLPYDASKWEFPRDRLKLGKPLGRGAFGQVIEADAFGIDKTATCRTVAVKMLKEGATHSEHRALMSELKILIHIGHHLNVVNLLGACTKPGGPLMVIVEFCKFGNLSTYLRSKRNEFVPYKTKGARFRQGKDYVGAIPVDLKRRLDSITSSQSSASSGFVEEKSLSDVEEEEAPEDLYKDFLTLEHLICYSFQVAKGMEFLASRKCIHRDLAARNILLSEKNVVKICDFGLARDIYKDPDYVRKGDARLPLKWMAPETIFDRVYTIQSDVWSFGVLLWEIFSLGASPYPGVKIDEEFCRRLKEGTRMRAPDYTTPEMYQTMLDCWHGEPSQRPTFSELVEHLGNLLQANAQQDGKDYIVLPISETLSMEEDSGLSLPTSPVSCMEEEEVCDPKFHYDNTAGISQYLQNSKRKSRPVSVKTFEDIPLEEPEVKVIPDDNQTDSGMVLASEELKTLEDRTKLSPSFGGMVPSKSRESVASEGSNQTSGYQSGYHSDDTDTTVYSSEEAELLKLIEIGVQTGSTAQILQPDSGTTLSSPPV
inhibition at 10 µM [1] [%],inhibition at 10 µM [2] [%],inhibition at 10 µM [3] [%],inhibition at 30 µM [2] [%],SMILES
,,39,92,"O=S(=O)(Nc1ccc2[nH]nc(I)c2c1)c1cccc(F)c1 [Example 12, 3-Fluoro-N-(3-iodo-1H-indazol-5-yl)benzenesulfonamide]"
84,89,18,,"O=C(Nc1ccccc1)c1n[nH]c2ccc(NS(=O)(=O)c3cccc(F)c3)cc12 [Example 22, N-Phenyl-5-(3-fluorobenzenesulfonylamino)-1H-indazole-3-carboxamide]"
,85,73,,"CNC(=O)c1n[nH]c2ccc(NS(=O)(=O)c3cccc(F)c3)cc12 [Example 19, N-Methyl-5-(3-fluorobenzenesulfonylamino)-1H-indazole-3-carboxamide]"
,,80,76,NC(=O)c1n[nH]c2ccc(NS(=O)(=O)c3cccc(F)c3)cc12 [Example 21]
,59,7,,"O=S(=O)(Nc1cccc(F)c1)c1ccc2[nH]ncc2c1 [Example 11, N-(3-Fluorophenyl)-(1H-indazol-5-yl)sulfonamide]"
,59,46,,"O=S(=O)(Oc1ccc2[nH]ncc2c1)c1cccc(F)c1 [Example 17, 1H-Indazol-5-yl 3-fluorobenzenesulfonate]"
,,13,67,"O=S(=O)(Nc1ccc2[nH]ncc2c1)c1cccc(F)c1 [Example 15, 3-Fluoro-N-(1H-indazol-5-yl)benzenesulfonamide]"
,58,8,,"O=S(=O)(Nc1ccc2[nH]nc(O)c2c1)c1cccc(F)c1 [Example 16, 3-Fluoro-N-(3-hydroxy-1H-indazol-5-yl)benzenesulfonamide]"
,,43,75,"O=S(=O)(Nc1ccc2[nH]nc(Cl)c2c1)c1ccc(Cl)c(Cl)c1 [Example 2, N-(3-Chloro-1H-indazol-5-yl)-3,4-dichlorobenzenesulfonamide]"

# The remaining lines, values behind:
SMILES,inhibition at 10 µM [1] [%],inhibition at 10 µM [2] [%],inhibition at 10 µM [3] [%],inhibition at 30 µM [2] [%]
"CC(C)(C)c1ccc(S(=O)(=O)Nc2ccc3[nH]nc(-c4ccccc4)c3c2)cc1 [Example 121, 4-tert-Butyl-N-(3-phenyl-1H-indazol-5-yl)-benzenesulfonamide]",27,5,39,
"CS(=O)(=O)c1ccccc1S(=O)(=O)Nc1ccc2[nH]nc(-c3cccc(C(=O)O)c3)c2c1 [Example 56, 3-[5-(2-Methylsulfonylbenzenesulfonamino)-1H-indazol-3-yl]benzoic acid]",87,81,82,
"CC(=O)Nc1ccc(S(=O)(=O)Nc2ccc3[nH]nc(-c4ccccc4)c3c2)cc1Cl [Example 146, N-[2-Chloro-4-(3-phenyl-1H-indazol-5-ylsulfamoyl)phenyl]-acetamide]",57,14,47,
"CS(=O)(=O)c1ccccc1S(=O)(=O)Nc1ccc2[nH]nc(-c3cccc4cccnc34)c2c1 [Example 67, 2-Methylsulfonyl-N-(3-quinolin-8-yl-1H-indazol-5-yl)benzenesulfonamide]",90,79,28,
"Cc1c(S(=O)(=O)Nc2ccc3[nH]nc(-c4ccccc4)c3c2)sc2ccc(Cl)cc12 [Example 153, N-(3-Phenyl-1H-indazol-5-yl)-(5-chloro-3-methyl-benzo[b]thiophene)-2-sulfonamide]",25,0,24,
"CS(=O)(=O)c1ccccc1S(=O)(=O)Oc1ccc2[nH]nc(-c3nc4ccccc4[nH]3)c2c1 [Example 226, 3-(1H-Benzimidazol-2-yl)-1H-indazol-5-yl-2-methanesulfonylbenzenesulfonate]",100,,,
"O=S(=O)(Nc1ccc2[nH]nc(-c3ccccc3)c2c1)c1ccc(OC(F)(F)F)cc1 [Example 160, 4-Trifluoromethoxy-N-(3-phenyl-1H-indazol-5-yl)benzenesulfonamide]",26,3,51,
"CC(C)S(=O)(=O)Nc1ccc2[nH]nc(-c3ccccc3)c2c1 [Example 123, 1-Methyl-N-(3-phenyl-1H-indazol-5-yl)ethanesulfonamide]",82,30,62,
"N#Cc1ccc(S(=O)(=O)Nc2ccc3[nH]nc(-c4ccccc4)c3c2)cc1 [Example 143, 4-Cyano-N-(3-phenyl-1H-indazol-5-yl)-benzenesulfonamide]",64,23,87,
CS(=O)(=O)c1ccccc1S(=O)(=O)Nc1ccc2[nH]nc(C(N)=O)c2c1 [Example 20],,76,28,
CS(=O)(=O)c1ccccc1S(=O)(=O)Oc1ccc2[nH]nc(-c3cc4ccccc4[nH]3)c2c1 [Example 227],100,,,
"CS(=O)(=O)c1ccccc1S(=O)(=O)Nc1ccc2[nH]nc(C#N)c2c1 [Example 5, N-(3-Cyano-1H-indazol-5-yl)-2-methylsulfonylbenzenesulfonamide]",,,26,80
